Test results as given in PMC7661526, “Antibiofilm effects of N,O-acetals derived from 2-amino-1,4-naphthoquinone are associated with downregulation of important global virulence regulators in methicillin-resistant Staphylococcus aureus” (Scientific Reports, 2020).
≈ marks a conversion by molar mass, not a printed value. Where two headings read alike, the source gives them in different places.

What was measured:
[1] = tested on: MRSA ST8-SCCmecIV (USA300); assay: Disk diffusion test; assay type: cell-based, Staphylococcus aureus
[2] = tested on: MRSA strain BMB9393 biofilm; assay: Biofilm development on polystyrene, crystal violet; assay type: cell-based, Staphylococcus aureus; conditions: 1/4MIC (6a 32 µg/mL, 7a 64 µg/mL, vancomycin 0.5 µg/mL); strain BMB9393
Experimental: Biofilms were formed on polystyrene surfaces using the BEC representative, strain BMB9393. […] The same volume of the bacterial culture in TSB-Glu (37 °C/18 h; at 250 rpm) diluted 1/100 in the same broth was added to the wells. After incubation (37 °C/24 h), supernatants were gently removed, rinsed with distilled water, and treated with crystal violet solution as described. […] Eight independent tests with three replicates each were performed. Controls were inoculated with the same bacterial inoculum but using only TSB-Glu with 2% (v/v) DMSO, final concentration.

[3] = tested on: MRSA ST5-SCCmecII (USA100); assay: Disk diffusion test; assay type: cell-based, Staphylococcus aureus
[4] = tested on: MRSA ST239-SCCmecIII (BMB9393); assay: Disk diffusion test; assay type: cell-based, Staphylococcus aureus
Hemocompatibility assay = conditions: human, pH 7.4
Experimental: (§1) Erythrocytes were collected from three human volunteers in a citrate tube and washed three times (3×) with PBS (pH 7.4). All derivatives were incubated with the PBS-erythrocyte suspension for 3 h at 37 °C. The hemolysis with the release of hemoglobin was quantified by the spectrophotometric reading of the supernatant at 545 nm. Hemolysis less than 10% represented hemocompatibility and non-toxicity against erythrocyte membranes. For the positive control, the human erythrocytes were lysed with 1% (v/v) Triton X-100. The negative control was performed with 1% (v/v) DMSO only (final concentration). […] All methods were carried out in accordance with relevant guidelines and regulations. In addition, informed consent was obtained from all volunteers. Three independent experiments were performed in triplicate.

S. aureus ATCC 25923 [5] = assay: MIC, broth microdilution; assay type: cell-based, Staphylococcus aureus
Description: (§2) Strain representatives of six globally spread clones/lineages of MRSA were used in this study to test the antimicrobial activity of the N,O-acetal derivatives against MRSA: NY/Japan-USA100/ST5-SCCmecII (strain CR15-071), USA300/ST8-SCCmecIV (strain USA300-0114), USA400/ST1-SCCmecIV (strain USA400-0051), Brazilian epidemic clone-BEC/ST239-SCCmecIII (strain BMB9393), pediatric clone-USA800/ST5-SCCmecIV (strain USA800-0179), and OSPC-USA1100/ST30-SCCmecIV (strain 07-040). The S. aureus ATCC 25923 was used as a control for the experiment of drug susceptibility. […] For biofilm production, tryptic soy broth (TSB; BD, Franklin Lakes, NJ, USA) was supplemented with 1% (w/v) glucose (TSB-Glu). Tryptic soy agar (TSA; BD) was used for bacterial growth. The Mueller-Hinton broth (MHB; BD) and Mueller-Hinton agar (MHA; BD) was used for susceptibility tests. All strains were maintained in 10% (v/v) glycerol stocks and stored at − 80 °C.
(§3) The antibacterial activity of 6a and its derivatives 7a, 7b, and 7c was tested as previously described using paper disks impregnated with each compound[13]. The derivatives were also analyzed quantitatively using microdilution assays in 96-well inert polystyrene microtiter plates (Nuclon; Nalge Nunc International, Rochester, NY, USA) to determine the minimal inhibitory concentration (MIC)[14]. Biological control, as well as growth conditions, were performed following CLSI recommendation[15],[16]. […] Controls were also performed using 2% (v/v) DMSO only.

Cytotoxicity assay (MTT) = conditions: African green monkey, Vero cell monolayers
Experimental: (§4) Plates were incubated for 1 h, the supernatant again removed, and 200 µL dimethyl sulfoxide (DMSO) were added to each well to dissolve the formazan crystals for 10 min. Absorbance was measured at 570 nm using an ELISA reader (Thermo Plate, TP-READER, Thermo Fisher Scientific). […] The selectivity index (SI) was calculated as follows: SI (µg/mL) = CC50/MIC[17]. Three independent experiments were performed in triplicate. Controls were performed using 2% (v/v) DMSO only.

[6] = tested on: MRSA (ST1-SCCmecIV) (USA400); assay: Disk diffusion test; assay type: cell-based, Staphylococcus aureus
[7] = tested on: MRSA NY/Japan-USA100 (CR15-071); assay: MIC, broth microdilution; assay type: cell-based, Staphylococcus aureus
Experimental: (§5) For biofilm production, tryptic soy broth (TSB; BD, Franklin Lakes, NJ, USA) was supplemented with 1% (w/v) glucose (TSB-Glu). Tryptic soy agar (TSA; BD) was used for bacterial growth. The Mueller-Hinton broth (MHB; BD) and Mueller-Hinton agar (MHA; BD) was used for susceptibility tests. All strains were maintained in 10% (v/v) glycerol stocks and stored at − 80 °C.
as §3, with “The” for “The antibacterial activity of 6a and its derivatives 7a, 7b, and 7c was tested as previously described using paper disks impregnated with each compound[13]. The”

[8] = tested on: MRSA USA300 (USA300-0114); assay: MIC, broth microdilution; assay type: cell-based, Staphylococcus aureus
Experimental: as §5
as §3, with “The” for “The antibacterial activity of 6a and its derivatives 7a, 7b, and 7c was tested as previously described using paper disks impregnated with each compound[13]. The”

[9] = tested on: MRSA OSPC-USA1100 (07-040); assay: MIC, broth microdilution; assay type: cell-based, Staphylococcus aureus
Experimental: as §5
as §3, with “The” for “The antibacterial activity of 6a and its derivatives 7a, 7b, and 7c was tested as previously described using paper disks impregnated with each compound[13]. The”

[10] = tested on: MRSA Pediatric-USA800 (USA800-0179); assay: MIC, broth microdilution; assay type: cell-based, Staphylococcus aureus
Experimental: as §5
as §3, with “The” for “The antibacterial activity of 6a and its derivatives 7a, 7b, and 7c was tested as previously described using paper disks impregnated with each compound[13]. The”

[11] = tested on: MRSA USA400 (USA400-0051); assay: MIC, broth microdilution; assay type: cell-based, Staphylococcus aureus
Experimental: as §5
as §3, with “The” for “The antibacterial activity of 6a and its derivatives 7a, 7b, and 7c was tested as previously described using paper disks impregnated with each compound[13]. The”

S. aureus ATCC 25923 [12] = assay: Disk diffusion test; assay type: cell-based, Staphylococcus aureus
Description: as §2, §3

MRSA BEC (BMB9393) = assay: microbe, parasite or virus in culture; assay type: cell-based, Staphylococcus aureus
Experimental: as §5
as §3, with “The” for “The antibacterial activity of 6a and its derivatives 7a, 7b, and 7c was tested as previously described using paper disks impregnated with each compound[13]. The”

[13] = tested on: MRSA ST30-SCCmecIV (USA1100); assay: Disk diffusion test; assay type: cell-based, Staphylococcus aureus
[14] = tested on: MRSA ST5-SCCmecIV (USA800); assay: Disk diffusion test; assay type: cell-based, Staphylococcus aureus
human erythrocytes = assay: Hemocompatibility assay; conditions: highest concentration evaluated (300 µg/mL), 3 h at 37 °C
Experimental: as §1

Vero cell line = assay: Cytotoxicity assay (MTT); conditions: Vero cells, 24 h, MTT
Experimental: as §4

[15] = tested on: MRSA strain CR15-071 (USA100) cells persistent to vancomycin; assay: Vancomycin-persistent cells, high bacterial load on TSA plates; assay type: cell-based, Staphylococcus aureus; conditions: vancomycin alone, 4MIC (8 µg/mL) plates, high inoculum
Experimental: For this test, we choose the MRSA strain CR15-071 representative of the ST5-SCCmecII lineage (NY/Japan-USA100 clone), since this MRSA has replaced the ST239-SCCmecIII (the Brazilian clone) in this country, and is now the most frequent MRSA lineage in Brazilian hospitals. […]. The plates were incubated at 37 °C/24 h before being examined. […]. Bacterial growth was determined by removing persistent cells from the plates and determining UFC/ml. Controls were also performed using 2% (v/v) DMSO only. Three independent experiments were performed in triplicate.

[16] = Table 2, used for SI, strain not given, values of 6a-7c equal those for BEC (BMB9393)

| SMILES | Inhibition zone [1] | Effect on biofilm development [2] | Inhibition zone [3] | Inhibition zone [4] | Inhibition zone [6] | Inhibition zone (S. aureus ATCC 25923 [12]) | MIC (MRSA BEC (BMB9393); [16]) | Inhibition zone [13] | Inhibition zone [14] | further results |
| --- | --- | --- | --- | --- | --- | --- | --- | --- | --- | --- |
| NC1=CC(=O)c2ccccc2C1=O [6a, 2-amino-1,4-naphthoquinone] | 9±1.0 mm | much less effective at reducing biofilm development compared with 7b or 7c | 9±1.0 mm | 8±2.0 mm | 8±1.2 mm | 9±1.4 mm | 128 µg/mL (≈ 739 µM) | 10±0.5 mm | 8±1.0 mm | hemolysis at 3 h, 300 µg/mL (Hemocompatibility assay; human erythrocyte suspension): 3 ± 0.9%; MIC (S. aureus ATCC 25923 [5]; Staphylococcus aureus, ATCC25923, control strain S. aureus ATCC 25923, read-out: MIC): 32 µg/mL (≈ 185 µM); CC50 at 24 h (Cytotoxicity assay (MTT)): 97.3 ± 3.12 µg/mL (≈ 562 µM); MIC ([7]; Staphylococcus aureus): 256 µg/mL (≈ 1480 µM); MIC ([8]; Staphylococcus aureus): 256 µg/mL (≈ 1480 µM); MIC ([9]; Staphylococcus aureus, MRSA): 256 µg/mL (≈ 1480 µM); MIC ([10]; Staphylococcus aureus): 128 µg/mL (≈ 739 µM); MIC ([11]; Staphylococcus aureus): 128 µg/mL (≈ 739 µM); MIC (MRSA BEC (BMB9393); Staphylococcus aureus, MRSA): 128 µg/mL (≈ 739 µM) |
| COCNC1=CC(=O)c2ccccc2C1=O [7a, 2-(methoxymethyl)-amino-1,4-naphthoquinone] | 14±1.0 mm | much less effective at reducing biofilm development compared with 7b or 7c | 12±1.0 mm | 10±1.5 mm | 13±2.0 mm | 9.7±2.0 mm | 256 µg/mL (≈ 1180 µM) | 13±1.0 mm | 12±1.0 mm | Hemolysis, maximum values (human erythrocytes): 3.10 ± 0.1%; MIC (S. aureus ATCC 25923 [5]; control strain S. aureus ATCC 25923): 128 µg/mL (≈ 589 µM); CC50 (Vero cell line): 155.28 ± 1.03 µg/mL (≈ 715 µM); MIC ([7]; broth microdilution, NY/Japan-USA100 (CR15-071)): 256 µg/mL (≈ 1180 µM); MIC ([8]; broth microdilution, USA300 (USA300-0114)): 128 µg/mL (≈ 589 µM); MIC ([9]; broth microdilution, OSPC-USA1100 (07-040)): 256 µg/mL (≈ 1180 µM); MIC ([10]; broth microdilution, Pediatric-USA800 (USA800-0179)): 256 µg/mL (≈ 1180 µM); MIC ([11]; broth microdilution, USA400 (USA400-0051)): 128 µg/mL (≈ 589 µM); MIC (MRSA BEC (BMB9393); broth microdilution, BEC (BMB9393)): 256 µg/mL (≈ 1180 µM) |
| CN[C@H](CC(C)C)C(=O)N[C@H]1C(=O)N[C@@H](CC(N)=O)C(=O)N[C@H]2C(=O)N[C@H]3C(=O)N[C@H](C(=O)N[C@H](C(=O)O)c4cc(O)cc(O)c4-c4cc3ccc4O)[C@H](O)c3ccc(c(Cl)c3)Oc3cc2cc(c3O[C@@H]2O[C@H](CO)[C@@H](O)[C@H](O)[C@H]2O[C@H]2C[C@](C)(N)[C@H](O)[C@H](C)O2)Oc2ccc(cc2Cl)[C@H]1O [Vancomycin, vancomycin, reference compound] | 17±1.0 mm | not able to reduce biofilm development | 16±1.5 mm | 14±1.0 mm | 16±2.0 mm | 13±1.0 mm |  | 16±1.5 mm | 17±1.5 mm | hemolysis at 3 h (Hemocompatibility assay): 3.6 ± 0.8%; Refractory/persistent cells recovered [15]: 4.5 × 10^8 CFU/mL |
